From US9113629B2, “4-amino-6-(4-substituted-phenyl)-picolinates and 6-amino-2-(4-substituted-phenyl)-pyrimidine-4-carboxylates and their use as herbicides” (DOW AGROSCIENCES LLC, priority 2013, dated 2015)

What was measured:
[1] = system: MATSS: scented mayweed (Matricaria chamomilla), pineappleweed (Matricaria matricarioides); assay: Post-emergent Test III, herbicidal activity in wheat and barley; assay type: in vivo; conditions: for pest or weed control at 35 g/ha / pest or weed control at 70 g/ha / pest or weed control at 140 g/ha: Matricaria chamomilla, post-emergence, 504 h, read-out: Visual Growth Reduction (%) 21 Days After Application MATSS; for pest or weed control at 35 g/ha: 35 g ai/ha; for pest or weed control at 70 g/ha: 70 g ai/ha; for pest or weed control at 140 g/ha: 140 g ai/ha; for GR50 MATSS / GR80 MATSS: probit analysis, 21 days after application; for GR50 MATSS: dose for growth reduction of 50 percent; for GR80 MATSS: dose for growth reduction of 80 percent
Procedure, shortened: (§1)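 Plants at the second to third true-leaf stage, grown in a greenhouse at about 18/17 °C with a 14 h photoperiod, were sprayed post-emergence at 187 L/ha with the high rate and ½× to 1/16× serial dilutions in an acetone/DMSO/crop-oil/surfactant carrier. Injury was rated visually at 21 d on a 0–100% scale, and GR20–GR90 were derived by probit analysis.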

[2] = system: KCHSC: kochia (Kochia scoparia); assay: as above; assay type: in vivo; conditions: for pest or weed control at 35 g/ha / pest or weed control at 70 g/ha / pest or weed control at 140 g/ha: Bassia scoparia, post-emergence, 504 h, read-out: Visual Growth Reduction (%) 21 Days After Application KCHSC; for pest or weed control at 35 g/ha: 35 g ai/ha; for pest or weed control at 70 g/ha: 70 g ai/ha; for pest or weed control at 140 g/ha: 140 g ai/ha; for GR50 KCHSC / GR80 KCHSC: probit analysis, 21 days after application; for GR50 KCHSC: dose for growth reduction of 50 percent; for GR80 KCHSC: dose for growth reduction of 80 percent
Procedure, shortened: as §1

[3] = system: APESV: bentgrass (Apera spica-venti); assay: as above; assay type: in vivo; conditions: for pest or weed control at 35 g/ha / pest or weed control at 70 g/ha / pest or weed control at 140 g/ha: Apera spica-venti, post-emergence, 504 h, read-out: Visual Growth Reduction (%) 21 Days After Application APESV; for pest or weed control at 35 g/ha: 35 g ai/ha; for pest or weed control at 70 g/ha: 70 g ai/ha; for pest or weed control at 140 g/ha: 140 g ai/ha; for GR50 APESV / GR80 APESV: probit analysis, 21 days after application; for GR50 APESV: dose for growth reduction of 50 percent; for GR80 APESV: dose for growth reduction of 80 percent
Procedure, shortened: as §1

[4] = as above; assay type: in vivo, Lolium multiflorum, Lolium rigidum; conditions: Lolium multiflorum, post-emergence, 504 h, read-out: Visual Growth Reduction (%) 21 Days After Application LOLSS; for pest or weed control at 35 g/ha: 35 g ai/ha; for pest or weed control at 70 g/ha: 70 g ai/ha; for pest or weed control at 140 g/ha: 140 g ai/ha
Procedure, shortened: as §1

[5] = system: LAMSS; assay: as above; assay type: in vivo; conditions: for pest or weed control at 35 g/ha / pest or weed control at 70 g/ha / pest or weed control at 140 g/ha: post-emergence, 504 h, read-out: Visual Growth Reduction (%) 21 Days After Application LAMSS; for pest or weed control at 35 g/ha: 35 g ai/ha; for pest or weed control at 70 g/ha: 70 g ai/ha; for pest or weed control at 140 g/ha: 140 g ai/ha; for GR50 LAMSS / GR80 LAMSS: probit analysis, 21 days after application; for GR50 LAMSS: dose for growth reduction of 50 percent; for GR80 LAMSS: dose for growth reduction of 80 percent
Procedure, shortened: as §1

[6] = system: LOLSS: ryegrass including, Italian ryegrass (Lolium multiflorum), rigid ryegrass (Lolium rigidum), annual ryegrass (Lolium multiflorum subsp. Gaudini); assay: as above; assay type: in vivo; conditions: probit analysis, 21 days after application; for GR50 LOLSS: dose for growth reduction of 50 percent; for GR80 LOLSS: dose for growth reduction of 80 percent
Procedure, shortened: as §1

[7] = system: ALOMY: black-grass (Alopecurus myosuroides); assay: as above; assay type: in vivo; conditions: for pest or weed control at 35 g/ha / pest or weed control at 70 g/ha / pest or weed control at 140 g/ha: Alopecurus myosuroides, post-emergence, 504 h, read-out: Visual Growth Reduction (%) 21 Days After Application ALOMY; for pest or weed control at 35 g/ha: 35 g ai/ha; for pest or weed control at 70 g/ha: 70 g ai/ha; for pest or weed control at 140 g/ha: 140 g ai/ha; for GR50 ALOMY / GR80 ALOMY: probit analysis, 21 days after application; for GR50 ALOMY: dose for growth reduction of 50 percent; for GR80 ALOMY: dose for growth reduction of 80 percent
Procedure, shortened: as §1

SMILES | pest or weed control at 35 g/ha [1] [%] | pest or weed control at 70 g/ha [1] [%] | GR50 MATSS [1] [g ai/ha] | GR80 MATSS [1] [g ai/ha] | pest or weed control at 35 g/ha [2] [%] | pest or weed control at 70 g/ha [2] [%] | GR50 KCHSC [2] [g ai/ha] | GR80 KCHSC [2] [g ai/ha] | pest or weed control at 35 g/ha [3] [%] | pest or weed control at 70 g/ha [3] [%] | GR50 APESV [3] [g ai/ha] | GR80 APESV [3] [g ai/ha] | pest or weed control at 35 g/ha [4] [%] | pest or weed control at 70 g/ha [4] [%] | pest or weed control at 35 g/ha [5] [%] | pest or weed control at 70 g/ha [5] [%] | GR50 LAMSS [5] [g ai/ha] | GR80 LAMSS [5] [g ai/ha] | GR50 LOLSS [6] [g ai/ha] | GR80 LOLSS [6] [g ai/ha] | other results
Nc1c(F)c(-c2ccc(Br)c(F)c2F)nc(C(=O)O)c1Cl [Compound 147] | 95 to 100 | 95 to 100 | 6 | 14 | 85 to 94 | 95 to 100 | 4 | 19 | 85 to 94 | 85 to 94 | 5 | 16 | 30 to 44 | 45 to 59 | 85 to 94 | 85 to 94 | 1 | 8 | 71 | >140 | pest or weed control at 140 g/ha [1]: 95 to 100%; pest or weed control at 140 g/ha [2]: 85 to 94%; pest or weed control at 140 g/ha [3]: 85 to 94%; pest or weed control at 140 g/ha [4]: 60 to 74%; pest or weed control at 140 g/ha [5]: 85 to 94%; pest or weed control at 35 g/ha [7]: 60 to 74%; pest or weed control at 70 g/ha [7]: 85 to 94%; pest or weed control at 140 g/ha [7]: 85 to 94%; GR50 ALOMY [7]: 20 g ai/ha; GR80 ALOMY [7]: 47 g ai/ha
COC(=O)c1nc(-c2ccc(C(F)F)cc2)c(F)c(N)c1Cl [Compound 209] | 0 to 29 | 0 to 29 | >140 | >140 | 60 to 74 | 85 to 94 | 12 | 42 | 0 to 29 | 0 to 29 | >140 | >140 | 0 to 29 | 30 to 44 | 85 to 94 | 85 to 94 | 7 | 29 | 93 | >140 | pest or weed control at 35 g/ha [7]: 0 to 29%; pest or weed control at 70 g/ha [7]: 0 to 29%; GR50 ALOMY [7]: >140 g ai/ha; GR80 ALOMY [7]: >140 g ai/ha
C=Cc1c(C(=O)O)nc(-c2ccc(Cl)c(F)c2)c(F)c1N [Compound 214] | 75 to 84 | 85 to 94 | 4 | 41 | 75 to 84 | 85 to 94 | 7 | 52 | 0 to 29 | 30 to 44 | 110 | >140 | 30 to 44 | 45 to 59 | 75 to 84 | 75 to 84 | 12 | 33 | 59 | >140 | pest or weed control at 140 g/ha [1]: 85 to 94%; pest or weed control at 140 g/ha [2]: 95 to 100%; pest or weed control at 140 g/ha [3]: 45 to 59%; pest or weed control at 140 g/ha [4]: 85 to 94%; pest or weed control at 140 g/ha [5]: 85 to 94%; pest or weed control at 35 g/ha [7]: 30 to 44%; pest or weed control at 70 g/ha [7]: 45 to 59%; pest or weed control at 140 g/ha [7]: 30 to 44%; GR50 ALOMY [7]: 95 g ai/ha; GR80 ALOMY [7]: >140 g ai/ha
